This is an account of results in ChEMBL document CHEMBL3045961, “Synthesis and evaluation of some pyrimidine analogs against toxoplasmosis” (Med Chem Res, 2008).

In assay [1] the target is T1, Bifunctional dihydrofolate reductase-thymidylate synthase (Cryptosporidium parvum) (UniProt Q27552).
T1 sequence (whole entry): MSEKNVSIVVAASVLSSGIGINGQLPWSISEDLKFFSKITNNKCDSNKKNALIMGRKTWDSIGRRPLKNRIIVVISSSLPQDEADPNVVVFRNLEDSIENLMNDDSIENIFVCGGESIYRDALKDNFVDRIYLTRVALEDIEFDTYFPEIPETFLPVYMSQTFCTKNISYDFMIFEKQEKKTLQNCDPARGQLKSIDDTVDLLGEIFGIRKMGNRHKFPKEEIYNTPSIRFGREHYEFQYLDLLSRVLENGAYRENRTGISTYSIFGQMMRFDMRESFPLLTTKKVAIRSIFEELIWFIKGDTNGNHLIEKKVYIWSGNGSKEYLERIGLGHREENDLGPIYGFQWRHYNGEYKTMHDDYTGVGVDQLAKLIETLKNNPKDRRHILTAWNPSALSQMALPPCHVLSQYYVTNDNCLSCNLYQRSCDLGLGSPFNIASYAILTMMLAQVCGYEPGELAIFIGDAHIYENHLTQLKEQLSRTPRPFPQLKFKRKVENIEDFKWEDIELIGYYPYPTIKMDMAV
The assay can be described thus: Ratio of trimethorpin IC50 to compound IC50 for Cryptosporidium parvum recombinant DHFR.

For another assay, the target named is T2, Dihydrofolate reductase (Homo sapiens, UniProt P00374).
T2 sequence (P00374 whole entry): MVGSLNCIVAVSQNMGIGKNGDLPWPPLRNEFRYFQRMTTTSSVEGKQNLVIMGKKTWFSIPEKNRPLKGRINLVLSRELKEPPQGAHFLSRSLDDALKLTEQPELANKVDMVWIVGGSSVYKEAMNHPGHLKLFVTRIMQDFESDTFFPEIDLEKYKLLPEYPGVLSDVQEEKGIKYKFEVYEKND
The assay can be described thus: Inhibition of Homo sapiens (human) dihydrofolate reductase using dihydrofolate as substrate incubated for 5 min prior to substrate addition by spectrophotometric assay.

Assay [2] addresses T3, Bifunctional dihydrofolate reductase-thymidylate synthase (Cryptosporidium parvum, UniProt Q27552).
T3 sequence (Q27552 whole entry): T1 sequence (whole entry)
The assay can be described thus: Inhibition of Cryptosporidium parvum recombinant DHFR using dihydrofolate as substrate incubated for 5 min prior to substrate addition by spectrophotometric assay.

The test system of assay [3] is Toxoplasma gondii. Nature of the assay: Antiparasitic activity Toxoplasma gondii RH infected Swiss albino mouse assessed as decrease in interstitial pneumonia at 0.25 mg, po administered 48 hr post-infection measured after 3 days by haematoxylin and eosin staining relative to control. Type of assay: functional, organism-based.
The test system of assay [4] is Toxoplasma gondii. Nature of the assay: Antiparasitic activity Toxoplasma gondii RH infected Swiss albino mouse assessed as decrease in host lung congestion at 0.25 mg, po administered 48 hr post-infection measured after 3 days by haematoxylin and eosin staining relative to control. It counts as functional, organism-based.
Assay [5] relates to Toxoplasma gondii. Nature of the assay: Antiparasitic activity Toxoplasma gondii RH infected Swiss albino mouse assessed as megakaryocytes in host spleen at 0.25 mg, po administered 48 hr post-infection measured after 3 days by haematoxylin and eosin staining relative to control. Type of assay: functional, organism-based.
Assay [6] deals with Toxoplasma gondii. The assay can be described thus: Antiparasitic activity Toxoplasma gondii RH infected Swiss albino mouse assessed as extramedullary hematopoiesis in host spleen at 0.25 mg, po administered 48 hr post-infection measured after 3 days by haematoxylin and eosin staining relative to control. Type of assay: functional, organism-based.
The test system of assay [7] is Toxoplasma gondii. Nature of the assay: Antiparasitic activity Toxoplasma gondii RH infected Swiss albino mouse assessed as epethelioid granuloma in host spleen at 0.25 mg, po administered 48 hr post-infection measured after 3 days by haematoxylin and eosin staining relative to control. Type of assay: functional, organism-based.
Assay [8] deals with Toxoplasma gondii. Nature of the assay: Antiparasitic activity Toxoplasma gondii RH infected Swiss albino mouse assessed as increase in host spleen red pulp at 0.25 mg, po administered 48 hr post-infection measured after 3 days by haematoxylin and eosin staining relative to control. It counts as functional, organism-based.
Assay [9] has as its system Toxoplasma gondii. The assay can be described thus: Antiparasitic activity Toxoplasma gondii RH infected Swiss albino mouse assessed as decrease in host spleen white pulp at 0.25 mg, po administered 48 hr post-infection measured after 3 days by haematoxylin and eosin staining relative to control. Type of assay: functional, organism-based.
The test system of assay [10] is Toxoplasma gondii. The assay can be described thus: Antiparasitic activity Toxoplasma gondii RH infected Swiss albino mouse assessed as decrease in host spleen necrosis at 0.25 mg, po administered 48 hr post-infection measured after 3 days by haematoxylin and eosin staining relative to control. It counts as functional, organism-based.
For assay [11], the system named is Toxoplasma gondii. Nature of the assay: Antiparasitic activity Toxoplasma gondii RH infected Swiss albino mouse assessed as clear lymphocytes in host liver focal granuloma at 0.25 mg, po administered 48 hr post-infection measured after 3 days by haematoxylin and eosin staining relative to control. Type of assay: functional, organism-based.
The test system of assay [12] is Toxoplasma gondii. Nature of the assay: Antiparasitic activity Toxoplasma gondii RH infected Swiss albino mouse assessed as clear mononuclear cells in host liver focal granuloma at 0.25 mg, po administered 48 hr post-infection measured after 3 days by haematoxylin and eosin staining relative to control. It counts as functional, organism-based.
The subject of assay [13] is Toxoplasma gondii. The assay can be described thus: Antiparasitic activity Toxoplasma gondii RH infected Swiss albino mouse assessed as decrease in host liver necrosis at 0.25 mg, po administered 48 hr post-infection measured after 3 days by haematoxylin and eosin staining relative to control. It counts as functional, organism-based.
Assay [14] relates to Toxoplasma gondii. The assay can be described thus: Antiparasitic activity Toxoplasma gondii RH infected Swiss albino mouse assessed as parasite dimpled conoid in host peritoneal exudate at 0.25 mg, po administered 48 hr post-infection measured after 3 days by scanning electron microscopic analysis. Type of assay: functional, organism-based.
In assay [15] the test system is Toxoplasma gondii. Nature of the assay: Antiparasitic activity Toxoplasma gondii RH infected Swiss albino mouse assessed as disorganised parasite conoid in host peritoneal exudate at 0.25 mg, po administered 48 hr post-infection measured after 3 days by scanning electron microscopic analysis. Type of assay: functional, organism-based.
Assay [16] has as its system Toxoplasma gondii. Nature of the assay: Antiparasitic activity Toxoplasma gondii RH infected Swiss albino mouse assessed as loss of parasite crescent shape in host peritoneal exudate at 0.25 mg, po administered 48 hr post-infection measured after 3 days by scanning electron microscopic analysis. It counts as functional, organism-based.
Assay [17] has as its system Toxoplasma gondii. Nature of the assay: Antiparasitic activity Toxoplasma gondii RH infected Swiss albino mouse assessed as parasite deformity in host peritoneal exudate at 0.25 mg, po administered 48 hr post-infection measured after 3 days by light microscopic analysis. It counts as functional, organism-based.
Assay [18] relates to Toxoplasma gondii. Nature of the assay: Antiparasitic activity Toxoplasma gondii RH infected Swiss albino mouse assessed as decreased parasite movement in host peritoneal exudate at 0.25 mg, po administered 48 hr post-infection measured after 3 days by light microscopic analysis. Type of assay: functional, organism-based.
In assay [19] the test system is Toxoplasma gondii. The assay can be described thus: Antiparasitic activity Toxoplasma gondii RH infected Swiss albino mouse assessed as decrease in Toxoplasma antigen in host serum at 0.25 mg, po administered 48 hr post-infection measured after 3 days by Co-A test relative to control. It counts as functional, organism-based.
The subject of assay [20] is Toxoplasma gondii. Nature of the assay: Antiparasitic activity against Toxoplasma gondii RH infected Swiss albino mouse assessed as decrease in tachozyte count in spleen at 0.25 mg, po administered 48 hr post-infection measured after 3 days by Geimsa staining relative to control. It counts as functional, organism-based.
Assay [21] concerns Toxoplasma gondii. Nature of the assay: Antiparasitic activity against Toxoplasma gondii RH infected Swiss albino mouse assessed as decrease in tachozyte count in liver at 0.25 mg, po administered 48 hr post-infection measured after 3 days by Geimsa staining relative to control. Type of assay: functional, organism-based.
Assay [22] has as its system Toxoplasma gondii. The assay can be described thus: Antiparasitic activity Toxoplasma gondii RH infected Swiss albino mouse assessed as decrease in tachyzoites end tapering in host peritoneal exudate at 0.25 mg, po administered 48 hr post-infection measured after 3 days by scanning electron microscopic analysis. Type of assay: functional, organism-based.
Assay [23] relates to Toxoplasma gondii. Nature of the assay: Antiparasitic activity Toxoplasma gondii RH infected Swiss albino mouse assessed as elongated tachyzoites in host peritoneal exudate at 0.25 mg, po administered 48 hr post-infection measured after 3 days by scanning electron microscopic analysis. It counts as functional, organism-based.
Assay [24] relates to Toxoplasma gondii. Nature of the assay: Antiparasitic activity Toxoplasma gondii RH infected Swiss albino mouse assessed as homogenous tachyzoites in host peritoneal exudate at 0.25 mg, po administered 48 hr post-infection measured after 3 days by scanning electron microscopic analysis. Type of assay: functional, organism-based.
In assay [25] the test system is Toxoplasma gondii. Nature of the assay: Antiparasitic activity Toxoplasma gondii RH infected Swiss albino mouse assessed as smooth tachyzoites in host peritoneal exudate at 0.25 mg, po administered 48 hr post-infection measured after 3 days by scanning electron microscopic analysis. Type of assay: functional, organism-based.
Assay [26] concerns Toxoplasma gondii. The assay can be described thus: Antiparasitic activity Toxoplasma gondii RH infected Swiss albino mouse assessed as dimpled parasite surface in host peritoneal exudate at 0.25 mg, po administered 48 hr post-infection measured after 3 days by scanning electron microscopic analysis. Type of assay: functional, organism-based.
For assay [27], the system named is Toxoplasma gondii. Nature of the assay: Antiparasitic activity Toxoplasma gondii RH infected Swiss albino mouse assessed as deep ridged parasite surface in host peritoneal exudate at 0.25 mg, po administered 48 hr post-infection measured after 3 days by scanning electron microscopic analysis. Type of assay: functional, organism-based.
The subject of assay [28] is Toxoplasma gondii. The assay can be described thus: Antiparasitic activity Toxoplasma gondii RH infected Swiss albino mouse assessed as multiple deep ridged parasite surface in host peritoneal exudate at 0.25 mg, po administered 48 hr post-infection measured after 3 days by scanning electron microscopic analysis. It counts as functional, organism-based.

Activity calls are given as the source filed them. The calls are words filed in the database; no cut-off is given here.

As a reminder, the IC50 is the concentration at which inhibition is half-maximal. As for `CCOC(=O)C1=C(C)N=C(SCCC(=O)O)NC1c1ccccc1OC` (stereo not drawn), the Ratio IC50 in assay [1] amounted to 40. The IC50 against Dihydrofolate reductase came to 8.9 nM; in assay [2] it was 75 nM. The result in the assay with Toxoplasma gondii [3], with Toxoplasma gondii [8], in the assay with Toxoplasma gondii [9], with Toxoplasma gondii [10], with Toxoplasma gondii [11] and with Toxoplasma gondii [12] was Active. Moreover, the outcome in the assay with Toxoplasma gondii [13], with Toxoplasma gondii [14], in the assay with Toxoplasma gondii [15], in the assay with Toxoplasma gondii [16], in the assay on Toxoplasma gondii [17] and with Toxoplasma gondii [18] was Active. The result in the assay on Toxoplasma gondii [19], in the assay on Toxoplasma gondii [20] and in the assay on Toxoplasma gondii [21] was Active. The outcome in the assay with Toxoplasma gondii [4], in the assay on Toxoplasma gondii [5], in the assay with Toxoplasma gondii [6] and with Toxoplasma gondii [7] was inactive.

Consider `CC(=O)C1=C(C)N=C(SCCC(=O)O)NC1c1ccccc1` (stereo not drawn), for which the Ratio IC50 in assay [1] worked out at 40. The IC50 on Dihydrofolate reductase worked out at 1.3 nM; in assay [2] it was 27 nM. Also, the result in the assay on Toxoplasma gondii [3], in the assay with Toxoplasma gondii [7], in the assay with Toxoplasma gondii [8], in the assay on Toxoplasma gondii [9], in the assay with Toxoplasma gondii [10] and in the assay on Toxoplasma gondii [11] was Active. Moreover, the outcome in the assay with Toxoplasma gondii [12], with Toxoplasma gondii [13], with Toxoplasma gondii [22], in the assay with Toxoplasma gondii [23], with Toxoplasma gondii [15] and in the assay on Toxoplasma gondii [16] was Active. The outcome in the assay with Toxoplasma gondii [17], in the assay with Toxoplasma gondii [18], in the assay with Toxoplasma gondii [19], in the assay with Toxoplasma gondii [20] and with Toxoplasma gondii [21] was Active. Also, the outcome with Toxoplasma gondii [4], with Toxoplasma gondii [5] and with Toxoplasma gondii [6] was inactive.

With `CC(=O)C1=C(C)N=C(SCCC(=O)O)NC1c1cccc(O)c1` (stereo not drawn), in assay [1], the Ratio IC50 came out at 40. For the same molecule, the IC50 on Dihydrofolate reductase worked out at 94 nM; in assay [2] it was 65 nM. For the same molecule, the result in the assay with Toxoplasma gondii [3], in the assay on Toxoplasma gondii [8], with Toxoplasma gondii [9], with Toxoplasma gondii [10], in the assay on Toxoplasma gondii [11] and in the assay with Toxoplasma gondii [12] was Active. Moreover, the outcome in the assay with Toxoplasma gondii [13], in the assay with Toxoplasma gondii [24], with Toxoplasma gondii [25], in the assay with Toxoplasma gondii [26], in the assay with Toxoplasma gondii [27] and in the assay with Toxoplasma gondii [17] was Active. In addition, the outcome in the assay with Toxoplasma gondii [18], with Toxoplasma gondii [19], in the assay with Toxoplasma gondii [20] and with Toxoplasma gondii [21] was Active. The outcome in the assay on Toxoplasma gondii [4], with Toxoplasma gondii [5], in the assay with Toxoplasma gondii [6] and in the assay on Toxoplasma gondii [7] was inactive.

For `CCOC(=O)C1=C(C)NC(S/C(=C\c2ccc(OC)cc2)C(=O)OCC)=NC1c1ccccc1` (stereo not drawn), the Ratio IC50 in assay [1] was 40. Besides, the results for the IC50 (on Dihydrofolate reductase; in [2]) were 10 nM and 38 nM, respectively. The outcome with Toxoplasma gondii [3], with Toxoplasma gondii [5], in the assay on Toxoplasma gondii [6], in the assay with Toxoplasma gondii [8], in the assay on Toxoplasma gondii [9] and with Toxoplasma gondii [10] was Active. For the same molecule, the outcome in the assay with Toxoplasma gondii [11], in the assay on Toxoplasma gondii [12], with Toxoplasma gondii [13], in the assay on Toxoplasma gondii [28], in the assay on Toxoplasma gondii [17] and in the assay with Toxoplasma gondii [18] was Active. The result with Toxoplasma gondii [19], in the assay with Toxoplasma gondii [20] and in the assay on Toxoplasma gondii [21] was Active. For the same molecule, the result in the assay with Toxoplasma gondii [4] and in the assay on Toxoplasma gondii [7] was inactive.
